Patent EP0092173A1, “11-Beta-chlorosteroids, process for their preparation and pharmaceutical compositions containing them” (SCHERING AKTIENGESELLSCHAFT, priority 1982, dated 1983)

How the values were obtained:
[1] = tested on: infantilen weiblichen Kaninchen; test: Clauberg test for progestational (gestagenic) activity after oral administration; type: in vivo; details: for McPhail: infantile female rabbits; for Schwellendosis (McPhail 1,5) für die gestagene Wirkung: minimum amount for a positive effect (McPhail 1,5)
Description: Die gestagene Wirkung wurde im üblichen Clauberg-Test nach oraler Applikation an infantilen weiblichen Kaninchen ermittelt.
Die zur Erzielung eines positiven Effekts benötigte Mindestmenge wird durch den McPhail-Wert 1,5 ausgedrückt.
In der folgenden Tabelle werden die Ergebnisse des Tests zusmmengestellt.

[2] = target: Androgen-Rezeptor (Homo sapiens, UniProt P10275); test: Androgen receptor test (competition factor); type: binding; details: assessment in words, based on the competition factor
Chain of Androgen-Rezeptor (P10275 whole entry): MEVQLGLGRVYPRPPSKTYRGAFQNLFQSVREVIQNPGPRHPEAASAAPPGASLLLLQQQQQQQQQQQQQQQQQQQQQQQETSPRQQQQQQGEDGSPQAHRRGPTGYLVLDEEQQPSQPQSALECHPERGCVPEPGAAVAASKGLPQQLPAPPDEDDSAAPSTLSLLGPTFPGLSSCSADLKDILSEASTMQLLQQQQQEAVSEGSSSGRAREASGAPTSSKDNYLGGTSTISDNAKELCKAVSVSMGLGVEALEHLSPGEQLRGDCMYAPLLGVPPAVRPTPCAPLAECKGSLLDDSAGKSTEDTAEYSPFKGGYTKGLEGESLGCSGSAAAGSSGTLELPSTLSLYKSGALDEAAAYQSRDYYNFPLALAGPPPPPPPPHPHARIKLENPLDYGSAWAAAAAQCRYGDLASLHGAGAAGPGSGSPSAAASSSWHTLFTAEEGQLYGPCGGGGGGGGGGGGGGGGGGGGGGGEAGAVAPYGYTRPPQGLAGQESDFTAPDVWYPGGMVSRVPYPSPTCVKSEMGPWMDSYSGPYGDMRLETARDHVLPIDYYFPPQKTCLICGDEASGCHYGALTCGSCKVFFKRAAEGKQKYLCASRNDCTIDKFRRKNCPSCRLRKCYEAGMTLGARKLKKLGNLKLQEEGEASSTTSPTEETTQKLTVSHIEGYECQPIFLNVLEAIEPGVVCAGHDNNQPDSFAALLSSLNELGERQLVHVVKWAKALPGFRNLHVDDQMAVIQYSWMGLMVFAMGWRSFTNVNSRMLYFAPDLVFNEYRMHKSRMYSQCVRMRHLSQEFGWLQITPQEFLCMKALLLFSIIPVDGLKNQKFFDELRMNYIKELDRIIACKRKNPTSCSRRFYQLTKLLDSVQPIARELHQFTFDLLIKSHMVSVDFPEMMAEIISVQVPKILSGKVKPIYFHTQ

| Structure (SMILES) | McPhail ([1]; Dosis 0,01 mg) | McPhail ([1]; Dosis 0,03 mg) | McPhail ([1]; Dosis 0,003 mg) | Schwellendosis (McPhail 1,5) für die gestagene Wirkung [1] | androgene Nebenwirkung [2] | McPhail ([1]; Dosis 0,1 mg) |
| --- | --- | --- | --- | --- | --- | --- |
| C#C[C@]1(O)CC[C@H]2[C@@H]3CCC4=CC(=O)CC[C@@H]4[C@H]3[C@@H](Cl)C[C@@]21CC [Verbindung B, 11ß-Chlor-17α-ethinyl-17ß-hydroxy-18-methyl-4-östren-3-on, reference compound] | 1,4 | 2,5 | 1,1 | ~0,01 mg | noch schwach androgen wirksam |  |
| CC[C@]12C[C@H](Cl)[C@H]3[C@@H](CCC4=CC(=O)CC[C@@H]43)[C@@H]1CC[C@@]2(O)C#CCl [Verbindung A, 11ß-Chlor-17α-chlorethinyl-17ß-hydroxy-18-methyl-4-östren-3-on] | 1,9 | 3,0 | 1,2 | ~0,003 mg | nur eine ganz geringfügige androgene Nebenwirkung | 3,3 |
